Measured values published in PubChem BioAssay AID1259407 (Chemical Carcinogenesis Research Information System (CCRIS), 2018).
Calls of active or inactive are those of the source. The rule behind the calls is not given here.

Test system: CCRIS mutagenicity, Ames/micronucleus/aberration tests
Assay: CCRIS mutagenicity studies
[1] = Test System: AMES SALMONELLA TYPHIMURIUM, Strain/Indicator: TA98, Metabolic Activation: NONE, Method: STANDARD PLATE
[2] = Test System: AMES SALMONELLA TYPHIMURIUM, Strain/Indicator: TA98, Metabolic Activation: RAT, LIVER, S-9, AROCLOR 1254, Method: STANDARD PLATE

Row | Compound | mutagenic call (Test System: AMES SALMONELLA TYPHIMURIUM, Strain/Indicator: TA98, Metabolic Activation: HAMSTER, LIVER, S-9, AROCLOR 1254, Method: STANDARD PLATE) | mutagenic call [1] | mutagenic call [2] | mutagenic call (Test System: AMES SALMONELLA TYPHIMURIUM, Strain/Indicator: TA100, Metabolic Activation: HAMSTER, LIVER, S-9, AROCLOR 1254, Method: STANDARD PLATE) | mutagenic call (Test System: AMES SALMONELLA TYPHIMURIUM, Strain/Indicator: TA100, Metabolic Activation: NONE, Method: STANDARD PLATE) | mutagenic call (Test System: AMES SALMONELLA TYPHIMURIUM, Strain/Indicator: TA100, Metabolic Activation: RAT, LIVER, S-9, AROCLOR 1254, Method: STANDARD PLATE) | mutagenic call (Test System: AMES SALMONELLA TYPHIMURIUM, Strain/Indicator: TA1535, Metabolic Activation: HAMSTER, LIVER, S-9, AROCLOR 1254, Method: STANDARD PLATE) | mutagenic call (Test System: AMES SALMONELLA TYPHIMURIUM, Strain/Indicator: TA1535, Metabolic Activation: NONE, Method: STANDARD PLATE) | mutagenic call (Test System: AMES SALMONELLA TYPHIMURIUM, Strain/Indicator: TA1535, Metabolic Activation: RAT, LIVER, S-9, AROCLOR 1254, Method: STANDARD PLATE) | mutagenic call (Test System: AMES SALMONELLA TYPHIMURIUM, Strain/Indicator: TA1537, Metabolic Activation: HAMSTER, LIVER, S-9, AROCLOR 1254, Method: STANDARD PLATE) | mutagenic call (Test System: AMES SALMONELLA TYPHIMURIUM, Strain/Indicator: TA1537, Metabolic Activation: NONE, Method: STANDARD PLATE) | mutagenic call (Test System: AMES SALMONELLA TYPHIMURIUM, Strain/Indicator: TA1537, Metabolic Activation: RAT, LIVER, S-9, AROCLOR 1254, Method: STANDARD PLATE) | mutagenic call (Test System: MOUSE LYMPHOMA, Strain/Indicator: L5178Y (TK+/TK-), Metabolic Activation: NONE, Method: SUSPENSION/PLATE) | mutagenic call (Test System: MOUSE LYMPHOMA, Strain/Indicator: L5178Y (TK+/TK-), Metabolic Activation: RAT, LIVER, S-9, AROCLOR 1254, Method: SUSPENSION/PLATE) | mutagenic call (Test System: AMES SALMONELLA TYPHIMURIUM, Strain/Indicator: TA98, Metabolic Activation: RAT, LIVER, CYTOSOL, AROCLOR 1254, Method: STANDARD PLATE) | mutagenic call (Test System: AMES SALMONELLA TYPHIMURIUM, Strain/Indicator: TA98, Metabolic Activation: RAT, LIVER, MICROSOMES, AROCLOR 1254, Method: STANDARD PLATE)
1 | O=C1c2ccccc2-c2ccccc21 | inactive; negative | inactive; negative | inactive; negative | inactive; negative | inactive; negative | inactive; negative | inactive; negative | inactive; negative | inactive; negative | inactive; negative | inactive; negative | inactive; negative | inactive; negative. reevaluation of results: inconclusive | inactive; negative. reevaluation of results: negative |  | 
2 | Cc1c([N+](=O)[O-])cnc2c1nc1c(C)cccn12 |  | active; positive | active; positive |  |  |  |  |  |  |  |  |  |  |  | active; positive | active; positive
